The values below come from PubChem BioAssay (NCI).

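The compound was tested at five concentrations on cells cultured in 96-well plates, with a 48-hour exposure period. GI50: concentration for 50% inhibition of growth. TGI is the concentration that stops growth completely.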 Where only a bound is given, the exact number is not on record here.

Holding throughout (test): growth of human tumour cells (NCI), 48 h
The test system of assay [1] is SK-MEL-5 melanoma.
For assay [2], the system named is MDA-MB-435.
Assay [3] relates to IGROV1 ovarian.
In assay [4] the test system is HCT-15 colon.
Assay [5] has as its system CCRF-CEM leukemia.
The test system of assay [6] is SR leukemia.
Assay [7] deals with BT-549 breast.
Assay [8] relates to UACC-257 melanoma.
In assay [9] the test system is HCT-116 colon.
The subject of assay [10] is U251 CNS.

For the compound `C[C@@H]1OC(=O)NN=C1c1ccc(-c2ccc(F)cc2)c(C(F)(F)F)c1`, the GI50 was 2.28 µM in [1]; 3.57 µM in assay [2]; 14.2 µM in [3]; 4.6 µM in [4]; 8.25 µM in assay [5]; 2.58 µM in assay [6]. The GI50 in assay [7] is 7.3 µM; in assay [8], 3.72 µM; in assay [9] it was 5.27 µM; in assay [10] it was 10.2 µM. Further, the TGI was 9.01 µM in [1]; 13.9 µM in [2]; 29.9 µM in [3]; 17.9 µM in assay [4]; more than 100 µM in assay [5]; 13 µM in assay [6]. The TGI turned out to be 21.2 µM in assay [7], 19.2 µM in assay [8], 20.6 µM in assay [9] and 23.3 µM in assay [10].
With `O=C(Nc1ccc(-n2ccc3c(NC(=O)c4ccccc4)nccc32)cc1)c1ccc(N2CCOCC2)c(C(F)(F)F)c1`, the GI50 was 0.0928 µM in assay [1]; 0.102 µM in assay [2]; 0.192 µM in assay [3]; 0.44 µM in [5]; less than 0.0189 µM in [6]; 4.73 µM in assay [7]. Further, the GI50 was 3.61 µM in [8], 0.035 µM in [9] and 0.0441 µM in [10]. The TGI in assay [1] is 10.8 µM; in assay [2] it was 41.8 µM; in assay [3] it was more than 42.6 µM; in [4], more than 43.4 µM; in assay [5] it was more than 100 µM; in [6] it was more than 100 µM. Also, the TGI was more than 67.9 µM in assay [7], 55.5 µM in assay [8], 15.7 µM in assay [9] and 8.16 µM in [10].
Regarding `COc1cc(=O)oc(/C=C/C=C/C=C/C(C)=C\C2(C)OC(C)C(C)(O)C2O)c1C` (centres undefined), the TGI in assay [1], in assay [2], in [3], in [4], in assay [5] and in assay [6] was more than 100 µM throughout. For the same compound, the TGI in assay [7], in assay [8], in assay [9] and in assay [10] was more than 100 µM in each case.
On to `CC(C)Cc1ccc(C(C)/C=C2\CCC(CN3CCCCC3)C2=O)cc1` (centres undefined), for which the TGI in assay [1] amounted to 27 µM; in assay [2], 28.2 µM; in [3] it was 9.05 µM; in assay [4], 7.29 µM; in assay [5], 5.51 µM; in assay [6], 8.23 µM. Besides, the TGI in assay [7] worked out at 34.4 µM; in assay [8], 26.4 µM; in assay [9], 12.7 µM; in assay [10] it was 4.94 µM.
In the case of `Cc1ccc2c(c1)-c1oc(=O)c(-c3cc4ccccc4oc3=O)cc1C(O)O2` (centres undefined), the GI50 in [1] is 19.1 µM; in assay [2], 19.2 µM; in [3] it was 17.4 µM; in assay [4], 23.9 µM; in [5], 42.2 µM; in [6] it was 22.9 µM. Moreover, the GI50 is 12.7 µM in assay [7], 34 µM in [8], 18 µM in [9] and 13.2 µM in assay [10]. Further, the TGI in [1] was 33.2 µM; in assay [2] it was 45.6 µM; in assay [3] it was 52.1 µM; in [4] it was 48.8 µM; in assay [5], more than 100 µM; in assay [6] it was 82.8 µM. Besides, the TGI in assay [7] was found to be 25.5 µM; in assay [8], 92.6 µM; in assay [9], 33 µM; in assay [10], 26.6 µM.
Consider `CCN(CC)CCC(=O)N1C/C(=C/c2ccccc2)C(=O)/C(=C\c2ccccc2)C1`, for which the TGI in [1] was 3.98 µM; in assay [2], 5.5 µM; in assay [3], 9.69 µM; in [4], 3.91 µM; in assay [5], 0.947 µM; in assay [6] it was more than 100 µM. The TGI came to 1.81 µM in assay [7], 4.98 µM in assay [8], 1.02 µM in [9] and 1.9 µM in assay [10].
`C[C@@]1(O)CCC[C@H]1n1c(=O)c(C(F)F)cc2cnc(NC3CCN(S(C)(=O)=O)CC3)nc21`: the GI50 in [1] was 1.15 µM; in assay [2], 1.4 µM; in [3], 1.38 µM; in assay [4], 1.74 µM; in assay [5] it was 1.5 µM; in assay [6] it was 1.96 µM. Moreover, the GI50 is 1.94 µM in [7], 2.31 µM in assay [8], 1.05 µM in assay [9] and 1.67 µM in assay [10]. In addition, the TGI was 7.91 µM in [1]; 9.01 µM in [2]; 43.7 µM in [3]; 56.6 µM in assay [4]; more than 100 µM in assay [5]; more than 100 µM in [6]. For the same compound, the TGI was 9.39 µM in assay [7], 22.8 µM in assay [8], more than 100 µM in [9] and more than 100 µM in assay [10].
Consider `S=C1SCN(C2CCCCCCCCCCC2)CN1C1CCCCCCCCCCC1`, for which the TGI in assay [1], in assay [2], in [3], in [4], in [5] and in [6] was more than 100 µM each time. Besides, the TGI in [7], in assay [8], in assay [9] and in [10] was more than 100 µM each time.
Regarding `COC(=O)CCCNC(=O)C(=O)c1c(O)c(O)c(C(C)C)c2cc(C)c(-c3c(C)cc4c(C(C)C)c(O)c(O)c(C(=O)C(=O)NCCCC(=O)OC)c4c3O)c(O)c12`, the GI50 was 1.24 µM in assay [1]; 1.06 µM in assay [2]; 0.499 µM in assay [3]; 0.587 µM in assay [4]; 0.331 µM in [5]; 0.706 µM in assay [6]. The GI50 in assay [7] is 1.19 µM; in [8] it was 1.77 µM; in assay [9], 0.156 µM; in assay [10] it was 0.298 µM. Besides, the TGI in assay [1] was 4.7 µM; in assay [2], 5.85 µM; in [3], 13 µM; in assay [4] it was 4.45 µM; in assay [5], more than 32.5 µM; in assay [6] it was 3.17 µM. The TGI was 7.28 µM in assay [7], 6.19 µM in assay [8], 2.31 µM in [9] and 2.31 µM in [10].
Turning to `CN1CCN(Cc2ccc(NC(=O)c3cccc(C#Cc4c(N)ncc5ccc(F)cc45)c3)cc2C(F)(F)F)CC1`, the GI50 in assay [1] was 0.896 µM; in assay [2] it was 0.763 µM; in [3] it was 0.597 µM; in assay [4], 0.621 µM; in assay [5], 0.989 µM; in assay [6], 1.02 µM. Also, the GI50 in assay [7] is 2.11 µM; in assay [8] it was 0.969 µM; in [9], 0.816 µM; in [10] it was 0.833 µM. In addition, the TGI in assay [1] stood at 1.68 µM; in assay [2], 1.47 µM; in [3] it was 1.4 µM; in assay [4], 1.41 µM; in [5], 2.58 µM; in [6], 2.71 µM. In addition, the TGI in assay [7] amounted to 6.66 µM; in assay [8], 2.11 µM; in assay [9] it was 1.61 µM; in assay [10] it was 1.6 µM.
For `CCOC(=O)c1csc(-c2nc(CCNC(=O)c3ccccc3)sc2Cl)n1`, the TGI in assay [1], in assay [2], in [3], in assay [4], in [5] and in assay [6] was more than 100 µM throughout. Also, the TGI in assay [7], in [8], in assay [9] and in assay [10] was more than 100 µM throughout.
As for `Clc1nc(-c2ccccc2)nc(Cl)c1Cl`, the TGI in [1] came out at 26.7 µM; in assay [2], 26.8 µM; in assay [3], 21.6 µM; in assay [4] it was 21.2 µM; in [5] it was 7.99 µM; in [6], 7.53 µM. In addition, the TGI in [7] is 35.6 µM; in assay [8], 28.2 µM; in [9], 17 µM; in [10] it was 21.5 µM.
